System: NOMO1
Assay: cell viability relative to DMSO control; higher = less cytotoxic
Settings: 48 h
Method in brief: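 Viability values are per-plate percentages of DMSO wells, with background from cell-free wells. Library compounds in DMSO were pin-dosed, in an 11-point threefold series from 47 μM to 0.79 nM, onto NOMO1 or SEM (500 cells/well) or P12-Ichikawa (1000 cells/well) leukemia cells in 1536-well plates (5 μl). Those cells had been adapted for at least four passages in each medium, and CellTiter-Glo One luminescence was read after 48 h at 37°C.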

[1] = HPLM + 10% dialyzed FBS, 0.000781 µM
[2] = HPLM + 10% dialyzed FBS, 0.00234 µM
[3] = HPLM + 10% dialyzed FBS, 0.00702 µM
[4] = HPLM + 10% dialyzed FBS, 0.0211 µM
[5] = HPLM + 10% dialyzed FBS, 0.0632 µM
[6] = HPLM + 10% dialyzed FBS, 0.19 µM
[7] = HPLM + 10% dialyzed FBS, 0.569 µM
[8] = HPLM + 10% dialyzed FBS, 1.71 µM
[9] = HPLM + 10% dialyzed FBS, 5.12 µM
[10] = HPLM + 10% dialyzed FBS, 15.4 µM
[11] = HPLM + 10% dialyzed FBS, 46.1 µM
[12] = RPMI 5 mM glucose + 10% FBS, 0.000781 µM
[13] = RPMI 5 mM glucose + 10% FBS, 0.00234 µM
[14] = RPMI 5 mM glucose + 10% FBS, 0.00702 µM
[15] = RPMI 5 mM glucose + 10% FBS, 0.0211 µM
[16] = RPMI 5 mM glucose + 10% FBS, 0.0632 µM
[17] = RPMI 5 mM glucose + 10% FBS, 0.19 µM
[18] = RPMI 5 mM glucose + 10% FBS, 0.569 µM
[19] = RPMI 5 mM glucose + 10% FBS, 1.71 µM
[20] = RPMI 5 mM glucose + 10% FBS, 5.12 µM
[21] = RPMI 5 mM glucose + 10% FBS, 15.4 µM
[22] = RPMI 5 mM glucose + 10% FBS, 46.1 µM
[23] = RPMI 5 mM glucose + 10% dialyzed FBS, 0.000781 µM
[24] = RPMI 5 mM glucose + 10% dialyzed FBS, 0.00234 µM
[25] = RPMI 5 mM glucose + 10% dialyzed FBS, 0.00702 µM
[26] = RPMI 5 mM glucose + 10% dialyzed FBS, 0.0211 µM
[27] = RPMI 5 mM glucose + 10% dialyzed FBS, 0.0632 µM
[28] = RPMI 5 mM glucose + 10% dialyzed FBS, 0.19 µM
[29] = RPMI 5 mM glucose + 10% dialyzed FBS, 0.569 µM
[30] = RPMI 5 mM glucose + 10% dialyzed FBS, 1.71 µM
[31] = RPMI 5 mM glucose + 10% dialyzed FBS, 5.12 µM
[32] = RPMI 5 mM glucose + 10% dialyzed FBS, 15.4 µM
[33] = RPMI 5 mM glucose + 10% dialyzed FBS, 46.1 µM

| Compound | cell viability [1] [%] | cell viability [2] [%] | cell viability [3] [%] | cell viability [4] [%] | cell viability [5] [%] | cell viability [6] [%] | cell viability [7] [%] | cell viability [8] [%] | cell viability [9] [%] | cell viability [10] [%] | cell viability [11] [%] | cell viability [12] [%] | cell viability [13] [%] | cell viability [14] [%] | cell viability [15] [%] | cell viability [16] [%] | cell viability [17] [%] | cell viability [18] [%] | cell viability [19] [%] | cell viability [20] [%] | cell viability [21] [%] | cell viability [22] [%] | cell viability [23] [%] | cell viability [24] [%] | cell viability [25] [%] | cell viability [26] [%] | cell viability [27] [%] | cell viability [28] [%] | cell viability [29] [%] | cell viability [30] [%] | cell viability [31] [%] | cell viability [32] [%] | cell viability [33] [%] |
| --- | --- | --- | --- | --- | --- | --- | --- | --- | --- | --- | --- | --- | --- | --- | --- | --- | --- | --- | --- | --- | --- | --- | --- | --- | --- | --- | --- | --- | --- | --- | --- | --- | --- |
| CCc1ccc(OCc2ccccc2C(=O)Nc2ccc3nc(C)cc(N)c3c2)cc1 | 92.1 | 107 | 105 | 117 | 115 | 118 | 127 | 114 | 15.3 | 6.13 | 4.55 | 103 | 108 | 105 | 108 | 110 | 116 | 112 | 113 | 112 | 7.05 | 4.22 | 109 | 108 | 116 | 117 | 116 | 130 | 124 | 115 | 111 | 6.5 | 4.65 |
| O=C(O)c1ccc(O)c2ncc(N3CCOCC3)cc12 | 90.9 | 108 | 99.9 | 103 | 99.3 | 101 | 109 | 105 | 97.2 | 83.6 | 18.9 | 93.9 | 91.1 | 92.7 | 92.1 | 89.4 | 86.3 | 87.5 | 86.2 | 85.4 | 79.3 | 73.8 | 98.1 | 101 | 111 | 104 | 107 | 94.2 | 126 | 102 | 91.2 | 104 | 81.5 |
| O=C1NC(=O)/C(=C/c2ccc3nccnc3c2)S1 | 108 | 124 | 116 | 118 | 106 | 118 | 113 | 125 | 102 | 95.9 | 89.3 | 98.4 | 130 | 109 | 107 | 101 | 105 | 111 | 100 | 97.1 | 86.6 | 103 | 118 | 109 | 132 | 110 | 111 | 118 | 103 | 106 | 92.6 | 88.8 | 95.3 |
| CCCCCNC(=N)N/N=C/c1c[nH]c2ccc(OC)cc12 | 123 | 121 | 134 | 132 | 137 | 135 | 147 | 137 | 132 | 71.7 | 48.8 | 122 | 122 | 142 | 131 | 145 | 155 | 141 | 129 | 134 | 93.4 | 26.7 |  |  |  |  |  |  |  |  |  |  |  |
| CC(C)C1CCC(C(=O)N[C@H](Cc2ccccc2)C(=O)O)CC1 (some centres undefined) | 87.3 | 100 | 75.4 | 90.4 | 89.9 | 84.5 | 81.4 | 88.6 | 78 | 76.4 | 91.4 | 93.5 | 88.5 | 91.8 | 89.7 | 92.2 | 91.6 | 85.1 | 80.7 | 84.2 | 81.4 | 84.6 | 92.2 | 96.9 | 98.9 | 94.4 | 92 | 94.8 | 100 | 82.6 | 101 | 82.8 | 92.3 |
| CC(=O)N(C)C1(c2ccccc2)CCN(CCC[C@]2(c3ccc(Cl)c(Cl)c3)CCCN(C(=O)c3ccccc3)C2)CC1 | 116 | 124 | 128 | 117 | 123 | 104 | 58.4 | 25.1 | 9.73 | 10 | 4.11 | 106 | 109 | 122 | 126 | 128 | 122 | 111 | 65.5 | 15.3 | 8.99 | 5.76 | 110 | 112 | 114 | 115 | 106 | 115 | 100 | 60.3 | 16.9 | 10.3 | 5.1 |
| O=C(O)c1cc(O)c2c(c1)C(=O)c1cccc(O)c1C2=O | 113 | 111 | 127 | 107 | 127 | 117 | 127 | 125 | 113 | 104 | 94.3 | 115 | 120 | 116 | 121 | 114 | 101 | 103 | 110 | 107 | 99.5 | 104 | 110 | 119 | 102 | 121 | 112 | 107 | 112 | 119 | 119 | 95.4 | 96.2 |
| C[C@]12CCC3c4ccc(O)cc4CCC3C1CCC2=O (some centres undefined) | 102 | 102 | 106 | 103 | 107 | 91.9 | 86.2 | 81.6 | 93 | 78.2 | 79.9 | 92.2 | 91.7 | 92.3 | 85.7 | 87.7 | 88.2 | 92.4 | 90.8 | 96.1 | 76 | 79.6 | 82.1 | 90.5 | 91.7 | 92.8 | 96.4 | 86.5 | 86.1 | 84.4 | 89 | 88.6 | 81.1 |
| CO[C@H]1CCC(O[C@H]2C[C@H]([C@]3(C)CC[C@]4(C[C@H](O)[C@@H](C)[C@@H]([C@@H](C)/C=C(\C)C(=O)[C@H](C)C[C@H](C)C(=O)[O-])O4)O3)O[C@]3(O[C@@H]([C@H]4O[C@@](O)(CO)[C@H](C)C[C@@H]4C)C[C@@H]3C)[C@@H]2C)O[C@@H]1C (some centres undefined) | 112 | 124 | 136 | 109 | 134 | 101 | 118 | 88.8 | 84.4 | 63.7 | 55.1 | 123 | 121 | 113 | 122 | 145 | 121 | 124 | 118 | 111 | 97.6 | 67.7 | 112 | 122 | 133 | 118 | 111 | 114 | 132 | 106 | 48.9 | 78.2 | 64.2 |
| COc1ccccc1[C@H](c1cccc2ccccc12)[C@@](C)(C#N)C(=O)N1CCC(c2cccc(C(F)(F)F)c2)CC1 | 96.4 | 109 | 101 | 104 | 115 | 102 | 102 | 93.7 | 88.6 | 64.3 | 39.9 | 102 | 96 | 101 | 106 | 99.6 | 103 | 99.7 | 107 | 97.6 | 85.2 | 60.3 | 100 | 98.9 | 98.6 | 99.3 | 104 | 99.9 | 86.4 | 86.5 | 83.1 | 67.3 | 53.1 |
| CC[C@H]1OC(=O)[C@H](C)[C@@H](O[C@H]2C[C@@](C)(OC)[C@@H](O)[C@H](C)O2)[C@H](C)[C@@H](O[C@@H]2O[C@H](C)C[C@H](N(C)C)[C@H]2O)[C@](C)(OC)C[C@@H](C)C(=O)[C@H](C)[C@@H](O)[C@]1(C)O | 110 | 121 | 96.8 | 105 | 89.3 | 92.2 | 92.6 | 90.9 | 84.9 | 88.3 | 101 | 103 | 101 | 99.5 | 101 | 97 | 105 | 84 | 92.9 | 81.5 | 79.2 | 81.2 | 86.3 | 87.5 | 83.1 | 92.6 | 93.8 | 87.8 | 79.7 | 80.5 | 84 | 84.4 | 83.4 |
| CC(C(C)N1CC(=O)NC(=O)C1)N1CC(=O)NC(=O)C1 (centres undefined) |  |  |  |  |  |  |  |  |  |  |  |  |  |  |  |  |  |  |  |  |  |  | 110 | 121 | 139 | 133 | 127 | 123 | 139 | 135 | 130 | 124 | 106 |
| Nc1nc(F)nc2c1ncn2[C@@H]1O[C@H](COP(=O)(O)O)[C@@H](O)[C@@H]1O | 121 | 123 | 135 | 134 | 123 | 125 | 129 | 126 | 109 | 47.3 | 21 | 112 | 112 | 130 | 123 | 125 | 115 | 133 | 118 | 117 | 109 | 38 |  |  |  |  |  |  |  |  |  |  |  |
| Cc1ccc(C(=O)Nc2cccc(C(F)(F)F)c2)cc1Nc1nc(-c2cccnc2)nc2c1cnn2C | 87.4 | 80.6 | 97.4 | 97.6 | 88.4 | 104 | 74 | 56.5 | 71.2 | 67.8 | 78 | 83.5 | 84.8 | 94.5 | 77.4 | 85.1 | 87.4 | 77.6 | 84.9 | 87.7 | 73.4 | 76.4 | 84.8 | 86.2 | 87.6 | 87.2 | 90.7 | 89.1 | 83.7 | 77.4 | 93.8 | 77.6 | 85.3 |
| OC1=CC=C(C=C1)C/2=C/C3=C(OC2)C=C(O)C=C3 | 118 | 123 | 114 | 111 | 118 | 111 | 100 | 82.8 | 60.9 | 26.3 | 5.22 | 97.2 | 108 | 117 | 99.8 | 108 | 108 | 104 | 93.3 | 89.4 | 23.9 | 9.27 | 108 | 118 | 110 | 109 | 101 | 105 | 111 | 106 | 96.8 | 33.1 | 14.9 |
| CCNC(=O)Nc1ccc(Oc2ncnc(N)c2/C=N/OC)cc1Cl | 104 | 113 | 111 | 115 | 109 | 113 | 133 | 125 | 127 | 105 | 111 | 112 | 118 | 114 | 115 | 119 | 113 | 113 | 121 | 118 | 124 | 122 | 90.2 | 113 | 98.1 | 101 | 114 | 109 | 117 | 112 | 103 | 109 | 125 |

Reference: the supplement of paper PMC11451515
